molecular target: Nav 1.7 (Homo sapiens (Human), UniProt Q15858); test: in-vitro Nav 1.7 PX (IC50); assay type: cell-based; conditions: not given
Sequence (Q15858 whole entry): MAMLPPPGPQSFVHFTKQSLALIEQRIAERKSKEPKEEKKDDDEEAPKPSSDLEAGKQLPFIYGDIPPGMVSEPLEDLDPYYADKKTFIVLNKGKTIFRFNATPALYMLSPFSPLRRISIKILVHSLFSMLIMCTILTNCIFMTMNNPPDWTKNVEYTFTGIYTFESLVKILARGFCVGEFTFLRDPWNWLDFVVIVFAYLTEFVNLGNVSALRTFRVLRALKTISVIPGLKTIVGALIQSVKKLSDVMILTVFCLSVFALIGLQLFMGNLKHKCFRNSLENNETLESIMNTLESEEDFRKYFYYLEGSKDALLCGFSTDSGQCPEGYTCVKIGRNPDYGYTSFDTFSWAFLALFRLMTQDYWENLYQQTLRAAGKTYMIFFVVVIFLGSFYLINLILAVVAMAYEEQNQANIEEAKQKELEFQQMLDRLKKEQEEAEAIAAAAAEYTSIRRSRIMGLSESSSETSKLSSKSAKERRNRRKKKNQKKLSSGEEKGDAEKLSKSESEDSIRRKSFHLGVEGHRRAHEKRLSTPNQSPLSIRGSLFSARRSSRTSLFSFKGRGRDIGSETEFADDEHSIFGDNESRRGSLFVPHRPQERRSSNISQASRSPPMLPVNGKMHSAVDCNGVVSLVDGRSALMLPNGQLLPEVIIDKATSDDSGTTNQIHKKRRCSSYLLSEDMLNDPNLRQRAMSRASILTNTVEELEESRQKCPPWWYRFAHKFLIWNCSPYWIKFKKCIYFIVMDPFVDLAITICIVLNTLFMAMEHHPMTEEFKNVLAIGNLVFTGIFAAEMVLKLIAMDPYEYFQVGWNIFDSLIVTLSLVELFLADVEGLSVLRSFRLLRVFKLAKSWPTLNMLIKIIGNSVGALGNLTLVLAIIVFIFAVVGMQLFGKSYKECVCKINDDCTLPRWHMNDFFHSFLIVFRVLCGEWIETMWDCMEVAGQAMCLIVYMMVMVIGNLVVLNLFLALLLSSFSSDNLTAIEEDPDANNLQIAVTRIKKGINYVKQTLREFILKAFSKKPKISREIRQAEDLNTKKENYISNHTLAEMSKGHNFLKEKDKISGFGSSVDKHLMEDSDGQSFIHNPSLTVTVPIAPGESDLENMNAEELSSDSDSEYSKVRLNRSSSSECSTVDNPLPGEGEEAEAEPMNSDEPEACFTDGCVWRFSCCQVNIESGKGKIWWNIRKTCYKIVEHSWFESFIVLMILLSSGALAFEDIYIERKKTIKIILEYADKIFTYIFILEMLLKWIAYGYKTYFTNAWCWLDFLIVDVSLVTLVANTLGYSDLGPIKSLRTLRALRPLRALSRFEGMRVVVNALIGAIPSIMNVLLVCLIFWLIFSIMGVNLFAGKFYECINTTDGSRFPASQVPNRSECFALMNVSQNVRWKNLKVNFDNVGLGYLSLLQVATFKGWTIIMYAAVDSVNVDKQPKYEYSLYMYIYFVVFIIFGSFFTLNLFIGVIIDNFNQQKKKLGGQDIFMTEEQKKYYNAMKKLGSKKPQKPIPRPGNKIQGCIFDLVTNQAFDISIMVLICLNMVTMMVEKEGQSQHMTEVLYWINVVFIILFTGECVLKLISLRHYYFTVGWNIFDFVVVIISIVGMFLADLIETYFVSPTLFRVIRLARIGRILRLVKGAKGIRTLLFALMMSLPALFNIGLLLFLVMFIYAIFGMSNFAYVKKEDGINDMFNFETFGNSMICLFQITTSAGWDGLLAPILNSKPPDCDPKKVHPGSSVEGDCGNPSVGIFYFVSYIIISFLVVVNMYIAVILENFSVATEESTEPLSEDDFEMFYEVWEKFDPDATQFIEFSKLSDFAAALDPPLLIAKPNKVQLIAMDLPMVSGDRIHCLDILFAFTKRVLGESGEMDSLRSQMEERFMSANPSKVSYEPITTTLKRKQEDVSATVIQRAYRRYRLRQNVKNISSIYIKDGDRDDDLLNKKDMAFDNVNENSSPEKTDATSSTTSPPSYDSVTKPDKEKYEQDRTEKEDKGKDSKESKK

| Compound | IC50 [nM] |
| --- | --- |
| COc1cc(-c2cccc(Cl)c2)c(Cl)cc1-n1c(=O)ccc2cc(S(=O)(=O)Nc3ccon3)ccc21 (atropisomer, axis not shown; (M)) [Example 460, (M)-1-(2,3′-dichloro-5-methoxy-[1,1′-biphenyl]-4-yl)-N-(isoxazol-3-yl)-2-oxo-1,2-dihydroquinoline-6-sulfonamide] | 1760 |
| COc1ccc(-c2cccc(C(F)(F)F)c2)cc1-n1c(=O)ccc2cc(S(=O)(=O)Nc3ccon3)ccc21 [Example 312, N-3-isoxazolyl-1-(4-methoxy-3′-(trifluoromethyl)-3-biphenylyl)-2-oxo-1,2-dihydro-6-quinolinesulfonamide] | 22 |
| Cc1cc(-c2cccc(F)c2)c(F)cc1-n1c(=O)ccc2cc(S(=O)(=O)Nc3ccon3)ccc21 (atropisomer, axis not shown; (P)) [Example 390, (P)-1-(2,3′-difluoro-5-methyl-[1,1′-biphenyl]-4-yl)-N-(isoxazol-3-yl)-2-oxo-1,2-dihydroquinoline-6-sulfonamide] | 100 |
| COc1cc(-c2cccc(F)c2)c(Cl)cc1-n1c(=O)ccc2cc(S(=O)(=O)Nc3ncccn3)ccc21 (atropisomer, axis not shown; (P)) [Example 355, (P)-1-(2-chloro-3′-fluoro-5-methoxy-[1,1′-biphenyl]-4-yl)-2-oxo-N-(pyrimidin-2-yl)-1,2-dihydroquinoline-6-sulfonamide] | 31 |
| COc1ccc(-c2cccc(C(F)(F)F)c2)cc1-n1c(=O)ccc2cc(S(=O)(=O)Nc3ccon3)ccc21 (atropisomer, axis not shown; (M)) [Example 382, (M)-N-3-isoxazolyl-1-(4-methoxy-3′-(trifluoromethyl)-3-biphenylyl)-2-oxo-1,2-dihydro-6-quinolinesulfonamide] | 3080 |
| COc1cc(-c2cccc(Cl)c2)ccc1-n1c(=O)ccc2cc(S(=O)(=O)Nc3ccon3)ccc21 [Example 350, P-1-(3′-chloro-3-methoxy-[1,1′-biphenyl]-4-yl)-N-(isoxazol-3-yl)-2-oxo-1,2-dihydroquinoline-6-sulfonamide] | 26 |
| COc1cc(Br)c(F)cc1-n1c(=O)ccc2cc(S(=O)(=O)Nc3cc(OCC4CC4)ncn3)ccc21 (atropisomer, axis not shown; (P)) [Example 1183, (P)-1-(4-bromo-5-fluoro-2-methoxyphenyl)-N-(6-(cyclopropylmethoxy)-4-pyrimidinyl)-2-oxo-1,2-dihydro-6-quinolinesulfonamide] | 2610 |

same assay, conditions: in-vitro Nav 1.7 PX data

| Compound | IC50 [nM] |
| --- | --- |
| COc1cc(F)cc(-c2ccc(-n3c(=O)ccc4cc(S(=O)(=O)Nc5cc(C)ncn5)ccc43)c(OC)c2)c1 [Example 1004, 1-(3′-fluoro-3,5′-dimethoxy-4-biphenylyl)-N-(6-methyl-4-pyrimidinyl)-2-oxo-1,2-dihydro-6-quinolinesulfonamide] | 219 |
| COc1cc(-c2cccc(C)c2)c(F)cc1-n1c(=O)ccc2cc(S(=O)(=O)Nc3ncc(F)cn3)ccc21 [Example 1109, 1-(2-fluoro-5-methoxy-3′-methyl-4-biphenylyl)-N-(5-fluoro-2-pyrimidinyl)-2-oxo-1,2-dihydro-6-quinolinesulfonamide] | 20 |
| COc1cc(C[C@H]2CCCOC2)c(F)cc1-n1c(=O)ccc2cc(S(=O)(=O)Nc3ccon3)ccc21 [Example 1118, 1-(5-fluoro-2-methoxy-4-((3R)-tetrahydro-2H-pyran-3-ylmethyl)phenyl)-N-3-isoxazolyl-2-oxo-1,2-dihydro-6-quinolinesulfonamide, 1-(5-fluoro-2-methoxy-4-((3S)-tetrahydro-2H-pyran-3-ylmethyl)phenyl)-N-3-isoxazolyl-2-oxo-1,2-dihydro-6-quinolinesulfonamide] | 1480 |
| COc1cc(-c2ccc(C)c(F)c2)c(F)cc1-n1c(=O)ccc2cc(S(=O)(=O)Nc3ncccn3)ccc21 [Example 1126, 1-(2,3′-difluoro-5-methoxy-4′-methyl-4-biphenylyl)-2-oxo-N-2-pyrimidinyl-1,2-dihydro-6-quinolinesulfonamide] | 57 |
| COc1cc(-c2cccc(OC)c2F)c(F)cc1-n1c(=O)ccc2cc(S(=O)(=O)Nc3ccon3)ccc21 [Example 734, 1-(2,2′-difluoro-3′,5-dimethoxy-4-biphenylyl)-N-3-isoxazolyl-2-oxo-1,2-dihydro-6-quinolinesulfonamide] | 81 |
| COc1cc(-c2ccc(Cl)cc2)ccc1-n1c(=O)ccc2cc(S(=O)(=O)Nc3ccnc(C)n3)ccc21 [Example 768, 1-(4′-chloro-3-methoxy-4-biphenylyl)-N-(2-methyl-4-pyrimidinyl)-2-oxo-1,2-dihydro-6-quinolinesulfonamide] | 52 |
| COc1cc(-c2cc(F)c(F)cc2F)ccc1-n1c(=O)ccc2cc(S(=O)(=O)Nc3ccon3)ccc21 [Example 1024, N-3-isoxazolyl-2-oxo-1-(2′,4′,5′-trifluoro-3-methoxy-4-biphenylyl)-1,2-dihydro-6-quinolinesulfonamide] | 62 |
| COc1ccc(-c2cc(F)cc(Cl)c2)cc1-n1c(=O)ccc2cc(S(=O)(=O)Nc3ccon3)ccc21 [Example 859, 1-(3′-chloro-5′-fluoro-4-methoxy-3-biphenylyl)-N-3-isoxazolyl-2-oxo-1,2-dihydro-6-quinolinesulfonamide] | 675 |
| COc1cc(-c2ccc(Cl)c(C#N)c2)c(F)cc1-n1c(=O)ccc2cc(S(=O)(=O)Nc3ncco3)ccc21 [Example 890, 1-(4′-chloro-3′-cyano-2-fluoro-5-methoxy-4-biphenylyl)-N-1,3-oxazol-2-yl-2-oxo-1,2-dihydro-6-quinolinesulfonamide] | 84 |
| 1-(3′-(difluoromethoxy)-2-fluoro-5-methoxy-4-biphenylyl)-N-(5-fluoro-2-pyrimidinyl)-2-oxo-1,2-dihydro-6-quinolinesulfonamide [Example 907] | 191 |

Second part, the compound after the results:

| IC50 [nM] | Compound |
| --- | --- |
| 9 | COc1cc(Cl)c(-c2cc(F)cc(Cl)c2)cc1-n1c(=O)ccc2cc(S(=O)(=O)Nc3ccon3)ccc21 (atropisomer, axis not shown; (P)) [Example 614, (P)-1-(3′,6-dichloro-5′-fluoro-4-methoxy-3-biphenylyl)-N-3-isoxazolyl-2-oxo-1,2-dihydro-6-quinolinesulfonamide] |
| 33 | COc1cc(-c2ccc(F)cc2)c(F)cc1-n1c(=O)ccc2cc(S(=O)(=O)Nc3cccnn3)ccc21 [Example 770, 1-(2,4′-difluoro-5-methoxy-4-biphenylyl)-2-oxo-N-3-pyridazinyl-1,2-dihydro-6-quinolinesulfonamide] |
| 49 | COc1cc(-c2cccc(C)c2F)c(F)cc1-n1c(=O)ccc2cc(S(=O)(=O)Nc3ccon3)ccc21 [Example 719, 1-(2,2′-difluoro-5-methoxy-3′-methyl-4-biphenylyl)-N-3-isoxazolyl-2-oxo-1,2-dihydro-6-quinolinesulfonamide] |
| 12 | COc1cc(-c2cc(Cl)ccc2F)c(F)cc1-n1c(=O)ccc2cc(S(=O)(=O)Nc3ccon3)ccc21 [Example 707, 1-(5′-chloro-2,2′-difluoro-5-methoxy-4-biphenylyl)-N-3-isoxazolyl-2-oxo-1,2-dihydro-6-quinolinesulfonamide] |
| 34 | COc1cc(-c2ccc(F)c(C)c2)c(F)cc1-n1c(=O)ccc2cc(S(=O)(=O)Nc3ncccn3)ccc21 [Example 940, 1-(2,4′-difluoro-5-methoxy-3′-methyl-4-biphenylyl)-2-oxo-N-2-pyrimidinyl-1,2-dihydro-6-quinolinesulfonamide] |
| 41 | COc1cc(-c2ccnc(C(F)(F)F)c2)c(F)cc1-n1c(=O)ccc2cc(S(=O)(=O)Nc3ccon3)ccc21 [Example 762, 1-(5-fluoro-2-methoxy-4-(2-(trifluoromethyl)-4-pyridinyl)phenyl)-N-3-isoxazolyl-2-oxo-1,2-dihydro-6-quinolinesulfonamide] |
| 10 | COc1cc(C)cc(-c2cc(OC)c(-n3c(=O)ccc4cc(S(=O)(=O)Nc5ccon5)ccc43)cc2F)c1 [Example 708, 1-(2-fluoro-3′,5-dimethoxy-5′-methyl-4-biphenylyl)-N-3-isoxazolyl-2-oxo-1,2-dihydro-6-quinolinesulfonamide] |
| 1230 | COc1cncc(-c2cc(OC)c(-n3c(=O)ccc4cc(S(=O)(=O)Nc5ccon5)ccc43)cc2F)c1 [Example 738, 1-(5-fluoro-2-methoxy-4-(5-methoxy-3-pyridinyl)phenyl)-N-3-isoxazolyl-2-oxo-1,2-dihydro-6-quinolinesulfonamide] |
| 35 | COc1cc(-c2ccc(C3CC3)cc2)c(F)cc1-n1c(=O)ccc2cc(S(=O)(=O)Nc3ccon3)ccc21 [Example 757, 1-(4′-cyclopropyl-2-fluoro-5-methoxy-4-biphenylyl)-N-3-isoxazolyl-2-oxo-1,2-dihydro-6-quinolinesulfonamide] |

same assay, conditions: in-vitro Nav 1.7 PX data (PatchXpress)

| IC50 [nM] | Compound |
| --- | --- |
| 112 | O=c1ccc2cc(S(=O)(=O)Nc3nncs3)ccc2n1-c1ccc(-c2cc(F)cc(F)c2)cc1C1CC1 [Example 1046, 1-(3-cyclopropyl-3′,5′-difluoro-4-biphenylyl)-2-oxo-N-1,3,4-thiadiazol-2-yl-1,2-dihydro-6-quinolinesulfonamide] |

same assay, conditions: in-vitro PatchXpress (PX)

| IC50 [nM] | Compound |
| --- | --- |
| 4840 | COc1cc(-c2ccc(C)c(C#N)c2)c(F)cc1-n1c(=O)ccc2cc(S(=O)(=O)Nc3ccon3)ccc21 (atropisomer, axis not shown; (M)) [Example 525, (M)-1-(3′-cyano-2-fluoro-5-methoxy-4′-methyl-4-biphenylyl)-N-3-isoxazolyl-2-oxo-1,2-dihydro-6-quinolinesulfonamide] |
| 31 | COc1cc(-c2cc(C)cc(C#N)c2)c(F)cc1-n1c(=O)ccc2cc(S(=O)(=O)Nc3ccon3)ccc21 (atropisomer, axis not shown; (P)) [Example 526, (P)-1-(3′-cyano-2-fluoro-5-methoxy-5′-methyl-4-biphenylyl)-N-3-isoxazolyl-2-oxo-1,2-dihydro-6-quinolinesulfonamide] |
| 2430 | COc1cc(-c2cccc(C(F)(F)F)c2)ccc1-n1c(=O)ccc2cc(S(=O)(=O)Nc3cccnn3)ccc21 (atropisomer, axis not shown; (M)) [Example 370, (M)-1-(3-methoxy-3′-(trifluoromethyl)-4-biphenylyl)-2-oxo-N-3-pyridazinyl-1,2-dihydro-6-quinolinesulfonamide] |
